Measured values: patent publication US8263606B2 (Xenon Pharmaceuticals Inc., priority 2008, dated 2012)

Legend:
[1] = test system: inactivated state of the channel of interest (sodium channel); test: Electrophysiological assay (whole cell voltage clamp, in vitro); format: cell-based; conditions: affinity for the inactivated state of the channel of interest
Method: Cells expressing the channel of interest are cultured in DMEM growth media (Gibco) with 0.5 mg/mL G418, +/−1% PSG, and 10% heat-inactivated fetal bovine serum at 37° C. and 5% CO2. For electrophysiological recordings, cells are plated on 10 mm dishes.
Whole cell recordings are examined by established methods of whole cell voltage clamp (Bean et al., op. cit.) using an Axopatch 200B amplifier and Clampex software (Axon Instruments, Union City, Calif.). All experiments are performed at ambient temperature. Electrodes are fire-polished to resistances of 2-4 Mohms Voltage errors and capacitance artifacts are minimized by series resistance compensation and capacitance compensation, respectively. Data are acquired at 40 kHz and filtered at 5 kHz. The external (bath) solution consists of: NaCl (140 mM), KCl (5 mM), CaCl2 (2 mM), MgCl2 (1 mM), HEPES (10 mM) at pH 7.4. The internal (pipette) solution consists of (in mM): NaCl (5), CaCl2 (0.1), MgCl2 (2), CsCl (10), CsF (120), HEPES (10), EGTA (10), at pH 7.2.
To estimate the steady-state affinity of compounds for the resting and inactivated state of the channel (Kr and Ki, respectively), 12.5 ms test pulses to depolarizing voltages from −60 to +90 mV from a holding potential of −120 m V is used to construct current-voltage relationships (I-V curves). A voltage near the peak of the IV-curve (−30 to 0 m V) is used as the test pulse throughout the remainder of the experiment. Steady-state inactivation (availability) curves are then constructed by measuring the current activated during a 8.75 ms test pulse following 1 second conditioning pulses to potentials ranging from −120 to −10 m V.
The steady-state voltage-dependence of binding of a compound to a sodium channel is determined by measuring the blockage of the ionic current at two holding potentials. Binding to rested-state channels is determined by using a holding potential of −120 mV, so that maximal availability is achieved. Binding to inactivated-state channels is evaluated at a holding potential such that only 10% of the channels are available to open. The membrane potential is held at this voltage for at least 10 seconds so that drug binding can equilibrate.
The apparent dissociation constant at each voltage is calculated with the equation:
[formula] where Kd is the dissociation constant (either Kr or Ki), and [Drug] is the concentration of the test compound.
The Example numbers provided in Table 3 correspond to the Examples herein: […]

[2] = test system: sodium channel; test: Guanidine influx assay (14C-guanidine radiotracer flux, in vitro); format: cell-based, human or rat; conditions: guanidine influx assay using a known cell line that expresses a sodium channel
Summary of the method: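 Cells (human/rat Nav, endogenous or recombinant), ~100,000/well, 20-24 h 37 °C/5% CO2. Wash LNHBSS (150 mM choline Cl, HEPES, glucose). Add cpd + aconitine/14C-guanidine mix, RT. Wash, dry, scintillation count. IC50: 4-PL fit; selectivity as IC50 ratio vs reference channel, e.g. Nav1.5.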

[3] = molecular target: CYP3A4 (Homo sapiens, UniProt P08684); test: Cytochrome P450 (CYP450) Inhibition Assay, CYP3A4 (Vivid fluorescence, BOMCC substrate); conditions: human, P450 Baculosomes (recombinant CYP3A4), probe BOMCC (Vivid substrate)
Chain of CYP3A4 (P08684 whole entry): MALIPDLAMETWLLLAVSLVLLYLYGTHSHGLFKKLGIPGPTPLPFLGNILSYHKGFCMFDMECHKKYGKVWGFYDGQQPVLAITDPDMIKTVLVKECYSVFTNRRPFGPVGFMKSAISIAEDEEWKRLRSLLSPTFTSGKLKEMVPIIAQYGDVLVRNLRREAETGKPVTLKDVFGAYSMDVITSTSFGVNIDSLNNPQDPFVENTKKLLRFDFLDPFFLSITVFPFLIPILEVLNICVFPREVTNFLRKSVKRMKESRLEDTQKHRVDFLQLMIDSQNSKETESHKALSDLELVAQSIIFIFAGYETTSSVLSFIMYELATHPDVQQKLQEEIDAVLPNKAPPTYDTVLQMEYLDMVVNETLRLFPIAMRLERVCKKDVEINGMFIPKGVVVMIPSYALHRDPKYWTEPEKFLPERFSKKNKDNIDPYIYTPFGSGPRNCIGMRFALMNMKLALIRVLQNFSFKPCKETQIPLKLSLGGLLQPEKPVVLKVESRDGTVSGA

| melting point | IC50 [2] | inhibition at 10 µM [3] | Compound | Ki [1] |
| --- | --- | --- | --- | --- |
| – | – | – | O=C1N(Cc2cccnc2)c2ccccc2C12COc1cc3c(cc12)OCCO3 (stereo not shown) [Example 10.1, 1′-(pyridin-3-ylmethyl)-2,3-dihydrospiro[furo[2,3-g][1,4]benzodioxine-8,3′-indol]-2′(1′H)-one] | > 300 nM |
| 117 to 119 °C | 1 to 100 nM | > 50% | O=C1N(Cc2ccc(N3CCOCC3)nc2)c2ccccc2C12COc1cc3c(cc12)OCCO3 (stereo not shown) [Example 32, 1′-[(6-morpholin-4-ylpyridin-3-yl)methyl]-2,3-dihydrospiro[furo[2,3-g][1,4]benzodioxine-8,3′-indol]-2′(1′H)-one] | – |
| 93 to 95 °C | 1 to 100 nM | < 50% | CN(C)c1ccc(CN2C(=O)C3(COc4cc5c(cc43)OCCO5)c3ccccc32)cn1 (stereo not shown) [Example 32.1, 1′-{[6-(dimethylamino)pyridin-3-yl]methyl}-2,3-dihydrospiro[furo[2,3-g][1,4]benzodioxine-8,3′-indol]-2′(1′H)-one] | – |
| 196 to 197 °C | 1 to 100 nM | > 50% | CN(C)c1cccc(CN2C(=O)C3(COc4cc5c(cc43)OCCO5)c3ccccc32)n1 (stereo not shown) [Example 32.2, 1-{[6-(dimethylamino)pyridin-2-yl]methyl}-2,3-dihydrospiro[furo[2,3-g][1,4]benzodioxine-8,3′-indol]-2′(1′H)-one] | – |
| 204 to 206 °C | 100 to 1000 nM | < 50% | O=C1N(Cc2ccc(N3CCOCC3)cn2)c2ccccc2C12COc1cc3c(cc12)OCCO3 (stereo not shown) [Example 33.3, 1′-[(5-morpholin-4-ylpyridin-2-yl)methyl]-2,3-dihydrospiro[furo[2,3-g][1,4]benzodioxine-8,3′-indol]-2′(1′H)-one] | – |
| 229 to 236 °C | 1 to 100 nM | > 50% | CN(C)c1ccc(CN2C(=O)C3(COc4cc5c(cc43)OCCO5)c3ccccc32)nc1 (stereo not shown) [Example 33.4, 1′-{[5-(dimethylamino)pyridin-2-yl]methyl}-2,3-dihydrospiro[furo[2,3-g][1,4]benzodioxine-8,3′-indol]-2′(1′H)-one] | – |
| 249 to 250 °C | 100 to 1000 nM | < 50% | O=C1N(Cc2ccc(=O)[nH]c2)c2ccccc2C12COc1cc3c(cc12)OCCO3 (stereo not shown) [Example 35, 1′-[(6-oxo-1,6-dihydropyridin-3-yl)methyl]-2,3-dihydrospiro[furo[2,3-g][1,4]benzodioxine-8,3′-indol]-2′(1′H)-one] | – |
| > 250 °C | 1000 to 10000 nM | < 50% | O=C1N(Cc2cnc(O)nc2)c2ccccc2C12COc1cc3c(cc12)OCCO3 (stereo not shown) [Example 35.1, 1′-[(2-hydroxypyrimidin-5-yl)methyl]-2,3-dihydrospiro[furo[2,3-g][1,4]benzodioxine-8,3′-indol]-2′(1′H)-one] | – |
| 205 to 207 °C | 100 to 1000 nM | < 50% | Cn1cc(CN2C(=O)C3(COc4cc5c(cc43)OCCO5)c3ccccc32)ccc1=O (stereo not shown) [Example 36, 1′-[(1-methyl-6-oxo-1,6-dihydropyridin-3-yl)methyl]-2,3-dihydrospiro[furo[2,3-g][1,4]benzodioxine-8,3′-indol]-2′(1′H)-one] | – |
| 117 to 119 °C | 1 to 100 nM | < 50% | Nc1ccc(CN2C(=O)C3(COc4cc5c(cc43)OCCO5)c3ccccc32)cn1 (stereo not shown) [Example 37, 1′-[(6-aminopyridin-3-yl)methyl]-2,3-dihydrospiro[furo[2,3-g][1,4]benzodioxine-8,3′-indol]-2′(1′H)-one] | – |
| 231 to 232 °C | 1 to 100 nM | < 50% | O=C1N(Cc2ccc(N/C=N\O)nc2)c2ccccc2C12COc1cc3c(cc12)OCCO3 (stereo not shown) [Example 38, N′-hydroxy-N-{5-[(2′-oxo-2,3-dihydrospiro[furo[2,3-g][1,4]benzodioxine-8,3′-indol]-1′(2′H)-yl)methyl]pyridin-2-yl}imidoformamide] | – |
| 207 to 209 °C | 1 to 100 nM | > 50% | O=C1N(Cc2ccc3ncnn3c2)c2ccccc2C12COc1cc3c(cc12)OCCO3 (stereo not shown) [Example 39, 1′-([1,2,4]triazolo[1,5-a]pyridin-6-ylmethyl)-2,3-dihydrospiro[furo[2,3-g][1,4]benzodioxine-8,3′-indol]-2′(1′H)-one] | – |
| 213 to 215 °C | 1 to 100 nM | < 50% | N#Cc1cccc(CN2C(=O)C3(COc4cc5c(cc43)OCCO5)c3ccccc32)n1 (stereo not shown) [Example 41, 6-[(2′-oxo-2,3-dihydrospiro[furo[2,3-g][1,4]benzodioxine-8,3′-indol]-1′(2′H)-yl)methyl]pyridine-2-carbonitrile] | – |
| 214 to 216 °C | 100 to 1000 nM | > 50% | COc1ccc(CN2C(=O)C3(COc4cc5onc(N)c5cc43)c3ccccc32)cc1 (stereo not shown) [Example 44, 3-amino-1′-(4-methoxybenzyl)spiro[furo[3,2-f][1,2]benzisoxazole-5,3′-indol]-2′(1′H)-one] | – |
| 190 to 192 °C | 100 to 1000 nM | < 50% | Nc1noc2cc3c(cc12)C1(CO3)C(=O)N(Cc2ccccn2)c2ccccc21 (stereo not shown) [Example 44.1, 3-amino-1′-(pyridin-2-ylmethyl)spiro[furo[3,2-f][1,2]benzisoxazole-5,3′-indol]-2′(1′H)-one] | – |
| 116 to 119 °C | 1000 to 10000 nM | < 50% | Nc1noc2cc3c(cc12)C1(CO3)C(=O)N(C[C@H]2CCCO2)c2ccccc21 (stereo partly drawn) [Example 44.2, 3-amino-1′-[(2R)-tetrahydrofuran-2-ylmethyl]spiro[furo[3,2-f][1,2]benzisoxazole-5,3′-indol]-2′(1′H)-one] | – |
| 262 to 264 °C | 1000 to 10000 nM | > 50% | Nc1noc2cc3c(cc12)C1(CO3)C(=O)N(Cc2ccccc2C(F)(F)F)c2ccccc21 (stereo not shown) [Example 44.3, 3-amino-1′-[2-(trifluoromethyl)benzyl]spiro[furo[3,2-f][1,2]benzisoxazole-5,3′-indol]-2′(1′H)-one] | – |
| 218 to 221 °C | 1000 to 10000 nM | < 50% | N#Cc1cc2c(cc1O)OCC21C(=O)N(C[C@H]2CCCO2)c2ccccc21 (stereo partly drawn) [Example 45, 6-hydroxy-2′-oxo-1′-[(2R)-tetrahydrofuran-2-ylmethyl]-1′,2′-dihydrospiro[1-benzofuran-3,3′-indole]-5-carbonitrile] | – |
| 122 to 124 °C | 1000 to 10000 nM | < 50% | N#Cc1cc2c(cc1O)OCC21C(=O)N(Cc2ccccc2C(F)(F)F)c2ccccc21 (stereo not shown) [Example 45.1, 6-hydroxy-2′-oxo-1′-[2-(trifluoromethyl)benzyl]-1′,2′-dihydrospiro[1-benzofuran-3,3′-indole]-5-carbonitrile] | – |
| 124 to 126 °C | 1000 to 10000 nM | > 50% | O=C1N(Cc2ccccc2C(F)(F)F)c2ccccc2C12COc1cc3[nH]ncc3cc12 (stereo not shown) [Example 46, 1′-[2-(trifluoromethyl)benzyl]-1H-spiro[furo[3,2-f]indazole-5,3′-indol]-2′(1′H)-one] | – |
| 117 to 119 °C | 100 to 1000 nM | < 50% | O=C1N(Cc2ccccn2)c2ccccc2C12COc1cc3[nH]ncc3cc12 (stereo not shown) [Example 46.1, 1′-(pyridin-2-ylmethyl)-1H-spiro[furo[3,2-f]indazole-5,3′-indol]-2′(1′H)-one] | – |
| 152 to 154 °C | 100 to 1000 nM | > 50% | O=C1N(Cc2ncccc2C(F)(F)F)c2ccccc2C12COc1cc3[nH]ncc3cc12 (stereo not shown) [Example 46.2, 1′-((3-(trifluoromethyl)pyridin-2-yl)methyl)-1,6-dihydrospiro[furo[3,2-f]indazole-5,3′-indolin]-2′-one] | – |
